According to paper PMC11172460 (International Journal of Molecular Sciences, 2024):
Like-named read-outs stand apart in the source and are kept apart here.

How the values were obtained:
[1] = rat brain homogenates, cited from earlier work; for amount hydrolyzed: within 6 h
[2] = same tristearin carriers; cited from earlier work
[3] = test system: differentiated N2a cells; assay: MTT assay of H2O2-altered viability (neuroprotection); type: cell-based, mouse; settings: 100 µM H2O2 for 24 h
Experimental: (§1) N2a cells were seeded on T75 flasks and grown in Dulbecco’s Modified Eagle Medium (DMEM) containing Glutamax, supplemented with 100 μg/mL streptomycin, 100 IU/mL penicillin, and 10% fetal bovine serum (FBS) in a humidified 5% CO2 atmosphere at 37 °C. After two passages by trypsinization, cells were seeded at a density of 5 × 10^3 cells/well in 12-well plates with 2 mL of DMEM or at a density of 5 × 10^2 cells/well in 96-well plates with 0.2 mL of DMEM, depending on the study (see below). For neural differentiation, N2a cells were allowed to adhere and proliferate in wells for 4 days; then, after washing once with serum-free DMEM, differentiating medium composed of DMEM containing 1% HS and 20 μM all-trans-retinoic acid (atRA) was added in both the seeding conditions, up to 6 days of differentiation, after which the cells were used for the experiments.
The MTT assay was also carried out to determine the neuroprotective effect of Fer-Ger on H2O2-induced cell oxidative stress in N2a neuronal cells. Briefly, N2a cells (5 × 10^2) were seeded and differentiated into 96-well plates, as reported above. Then, cells were incubated with 1 µM and 5 µM Fer-Ger dissolved in DMEM containing 0.5% HS for 1 h in a humidified 5% CO2 atmosphere at 37 °C. The experimental design therefore included cells incubated with only culture medium as a control and cells incubated for 24 h with 100 µM H2O2 as a damage-inducing agent after 1 h of preincubation in the absence or presence of 1 µM or 5 µM Fer-Ger. Then, 20 μL of MTT (5 mg/mL) was added into the 200 µL of the incubation medium. Four hours later, the medium containing MTT was aspirated and replaced by 100 µL of dimethyl sulfoxide (DMSO) solubilization agent for 1 h at 37 °C in an orbital shaker incubator. Finally, the absorbance of each well was measured at 570 nm using a microtiter plate reader (Sunrise® Microplate Reader, Tecan Trading AG, Männedorf, Switzerland).

[4] = test system: differentiated N2a cells; assay: DCFH-DA assay of intracellular ROS production; type: cell-based, mouse
Experimental: as §1
The potential antioxidant effect of Fer-Ger was evaluated according to the original method of Wang and Joseph. In this method, the nonpolar 2′,7′-dichlorofluorescin diacetate (DCFH-DA) enters the intact cells and is hydrolyzed by intracellular esterases to nonfluorescent DCFH carboxylate anion, which remains entrapped and becomes the high fluorescent dichlorofluorescin (DCF) after oxidation by free radicals generated by a stressor, such as H2O2. Therefore, H2O2-induced intracellular ROS production was measured in N2a cells by a florescence intensity assay following exposure to the oxidation-sensitive dye DCFH-DA. N2a cells were seeded at a density of 1 × 10^4 cells/well in a black-coated and clear bottom 96-well plate and neuron-differentiated as reported above. After 6 days, differentiating medium in N2a cells was replaced with pre-warmed phenol-red-free and serum-free DMEM containing 10 µM DCFH-DA and incubated for 30 min in the dark in a humidified 5% CO2 atmosphere at 37 °C. The 10 µM DCFH-DA loading solution was then removed, and the cells were washed twice with fresh phenol-red-free and serum-free DMEM to remove the redundant extracellular DCFH-DA probe. Subsequently, N2a cells were incubated with pre-warmed phenol-red free DMEM containing 1% FBS as an untreated control and with solutions dissolved in phenol-red free DMEM containing 1% FBS of Fer-Ger (1, 5, or 10 µM) or 100 µM ascorbic acid (AA, as an established antioxidant positive control) and incubated for 1 h in a humidified 5% CO2 atmosphere at 37 °C. After this time, 100 µM H2O2 was added in the absence or presence of 1, 5 or 10 µM Fer-Ger or 100 µM AA, and the fluorescence intensity was measured at an excitation wavelength of 485 nm and at an emission wavelength of 530 nm, monitoring the oxidation of DCFH to DCF by the intracellular ROS by running the kinetic over 75 min in a fluorescence microplate reader (VICTOR^3TM 1420 Multilabel counter, PerkinElmer, Milan, Italy). Results were represented as a percentage of intracellular ROS production (100% of control) resulting from the mean values ± SEM of sextuplicate wells over time.

[5] = rat liver homogenates, cited from earlier work
[6] = rodents and humans, ranging from a few minutes to 30 min; cited from earlier work
[7] = set-up: method as in PMID 10669289; settings: 1-octanol/water; cited from earlier work

Compound: COC(=O)/C=C/c1ccc(OC(=O)/C=C/c2ccc(O)c(OC)c2)c(OC)c1 [Fer-Fer-Me]
- half-life of hydrolysis [1]: about 14 min
- drug loading [2]: 0.49 % w/w
- encapsulation efficiency (EE) [2]: about 19%

Compound: COc1cc(C=CC(=O)Oc2ccc(C=CC(=O)O)cc2OC)ccc1O [Fer-Fer]
- amount hydrolyzed [1]: about 50%

Compound: OO [H2O2, hydrogen peroxide, reference compound]
- reduction of cell viability compared to untreated cells [3]: 74%
- effect on DCF fluorescence (ROS production) ([4]; 100 µM H2O2, 75 min observation): significantly and time-dependently increased DCF fluorescence

Compound: CC(C)=CCCC(C)=CCOC(=O)CCC(C)C1CCC2C3C(O)CC4CC(O)CCC4(C)C3CCC12C (stereo not shown) [GER-UDCA]
- half-life of hydrolysis [5]: higher than 30 min
- amount hydrolyzed [1]: about 30%

Compound: COC(=O)/C=C/c1ccc(O)c(OC)c1 [Fer-Me]
- hydrolysis [1]: total absence of hydrolysis processes
- drug loading [2]: 0.72 % w/w
- encapsulation efficiency (EE) [2]: about 28%

Compound: Cc1cn([C@H]2C[C@H](N=[N+]=[N-])[C@@H](COC(=O)CC[C@@H](C)[C@H]3CC[C@H]4[C@@H]5[C@@H](O)C[C@@H]6C[C@H](O)CC[C@]6(C)[C@H]5CC[C@]34C)O2)c(=O)[nH]c1=O [UDCA-AZT]
- hydrolysis rate ([5]; ref our previous results): the same hydrolysis rate as Fer-Ger
- half-life of hydrolysis [1]: about 7 min
- drug loading [2]: 0.57 % w/w
- encapsulation efficiency (EE) [2]: about 26%

Compound: COc1cc(/C=C/C(=O)O)ccc1O [Fer, ferulic acid]
- drug loading [2]: 0.38 % w/w
- encapsulation efficiency (EE) [2]: about 14%
- in vivo half-lives [6]: ≤ 30 min

Compound: O=C1O[C@H]([C@@H](O)CO)C(O)=C1O [ascorbic acid]
- effect on basal ROS production ([4]; 100 µM ascorbic acid alone): without by itself modifying basal ROS production
- effect on H2O2-induced ROS production ([4]; 100 µM ascorbic acid with 100 µM H2O2): completely prevented the H2O2-induced ROS production

Compound: CC(C)=CCC/C(C)=C/CO [Ger, geraniol]
- in vivo half-lives [6]: ≤ 30 min
- Log P [7]: 3.56
